In patent US20220040136A1, “TREATMENT OF VULVOVAGINAL DISORDERS” (University of Rochester, priority 2018, published 2022):

How the values were obtained:
human vulvar fibroblasts = assay: In vitro LPV model: SPM post-treatment of already activated patient fibroblasts, IL-6 and PGE2; format: cell-based; settings: post-treatment: IL-1β 30 min, then 5 nM SPM 18 hours, booster dose 6 hr
Experimental: FIGS. 5A, 5B, 5C, and 5D are a set of diagrams showing that PGE2 and IL-6 production is reduced by SPMs. Patient vestibular or vulvar fibroblasts were pre-treated for 10 hours with Lipoxin A4 (LxA4), Resolvin D2 (RvD2), (7R)-Maresin 1 or epi(7S)-Maresin 1 at a 5 nM concentration, then activated with IL-1β (Panel A; 10 pg/ml) or bradykinin (Panel B; 100 nM) for 48 hr. Culture media were collected and analyzed for PGE2 (Panel A) or IL-6 (Panel B) content. Patient fibroblasts were also activated first with IL-1β for 30 min then treated with 5 nM (7R)-Maresin 1 or LXA4 for 18 hours, followed by a booster dose for 6 hr. Culture media were collected and analyzed for PGE2 (Panel C) or IL-6 (Panel D) content. Mean+/−SEM of n=3, ANOVA *p<0.05 vs. activation only (no SPM).
FIGS. 24A and 24B are diagrams showing that six SPMs are effective in reducing IL-6 and PGE2 production from fibroblasts when used as a post-treatment. Patient vestibular or vulvar fibroblasts were activated first with IL-1β for 30 min then treated with RvD3, RvD4, RvD5, RvE1, Protectin D1 or Protectin DX at a 5 nM concentration for 18 hours, followed by a booster SPM dose for 24 hr. Culture media were collected and analyzed for IL-6 (Panel A) and PGE2 (Panel B) content. Mean+/−SEM of n=6 (two cases run in triplicate), ANOVA *p<0.05 vs. activation only (IL-1b). […] The magnitude of reduction was not as great as pre-treatment, but equally significant as the reduction from pre-treatment regimens.
In this example, a fibroblast-based in vitro LPV model was established. Briefly, fibroblast strains were obtained from two regions (FIG. 1) of the lower genital tract of localized provoked vulvodynia (LPV) cases and pain-free controls in the manner described in Falsetta et al. Am J Obstet Gynecol 2015, vol. 213, pp. 38 e1-12 and Foster et al., Pain 2015, vol. 156, pp. 386-96.
Over 30 paired fibroblast strains obtained from LPV-afflicted cases (fulfilling Friedrich's Criteria)^25 and age/race-matched (critical variables influencing LPV),^26, 27 pain-free controls were obtained. All subjects who contributed to the library were premenopausal, denied oral corticosteroids, non-steroidal, immunomodulatory, or anti-inflammatory medication use, and reported an absence of systemic/cutaneous inflammatory conditions at the time of sample collection. Mechanical pain thresholds were determined (via a method of limits) (0.5-5 N) using a Wagner algometer. Fibroblast identity was confirmed by microscopy and fibroblast markers (vimentin, collagen); only low passage (˜4) cells are used.
Synthesized, purified and commercially available SPMs from each known SPM class (E-series Resolvins, D-series Resolvins, Maresins, Protectins and Lipoxins) at low/nanomolar concentrations (1-100 nM) were tested. […] The inventors used one of two treatment regimens proven effective in vulvar fibroblasts and other cells: 1) overnight pre-treatment, followed by another treatment 30 min prior to stimulation with proinflammatory stimuli for 48 hr with a third dose of SPMs at 24 hr post-challenge, or 2) post-treatment with SPMs after a 30 min pre-treatment with inflammatory stimuli, followed by a booster dose 18 hr later. Both treatment regimens are of interest, as SPMs are active throughout the inflammatory process.^5-7 Even SPMs administered after LPV onset are likely to prevent the worsening or spread of LPV pain.

C57BL/6 mice = assay: Mouse model of LPV (zymosan-induced vulvar allodynia), topical Maresin 1; format: in vivo; settings: topical 1 μg/mouse/day, daily for 4 weeks
Excerpt: FIG. 9 is a diagram showing that PGE2 in vaginal lavage is associated with pain threshold. After induction of allodynia for up to 6 weeks (indicated by reduced pain threshold, red line), Maresin 1 was applied to C57BL/6 mouse vulvas to reduce pain and increase pain threshold. PGE2 content in vaginal lavage samples (blue line) rapidly increases during the induction phase, indicating pain-associated inflammation waning with treatment. SEM shown, n=8.
In the mouse model, zymosan (a proinflammatory yeast cell wall preparation) was used to induce sustained vulvar allodynia, measured by pain threshold testing. […]
Using this approach, inventors confirmed that one could induce vulvar allodynia, measure pain responses via mechanical threshold determination, and assess treatment responses. However, inventors implemented several modifications to improve the robustness of the model including the following: 1) use a genetically tractable inbred strain, 2) validation of the use of an electronic von Frey (EvF) system, 3) assessment of the impact of behavioral conditioning on pain response, 4) weekly collection of vulvovaginal lavages for proinflammatory mediator quantification, and 5) testing the ability of a selected SPM (e.g., Maresin 1) to modulate pain and inflammation in our new model. […]

Structure (SMILES): CC/C=C\C/C=C\C[C@H](O)\C=C/C=C/C=C/[C@H](O)C/C=C\CCC(=O)O [Maresin 1, 7R,14S-docosa-4Z,8E,10E,12Z,16Z,19Z-hexaenoic acid]
- PGE2 levels (human vulvar fibroblasts; FIG. 5C): significantly reduced
- IL-6 levels (human vulvar fibroblasts; FIG. 5D): significantly reduced
- PGE2 levels in vaginal lavage (C57BL/6 mice): suppressed and maintained at levels below baseline
- pain threshold (electronic von Frey) (C57BL/6 mice; after allodynia induction): complete restoration to the pre-induction thresholds
